Values of other authors, collected in patent US8741563B2, “Metronidazole resistance in trichomonas vaginalis and single nucleotide polymorphisms” (priority 2011, dated 2014).

Test system: Trichomonas vaginalis
Settings: reported effectiveness of metronidazole treatment

SMILES: Cc1ncc([N+](=O)[O-])n1CCO [Metronidazole]
- treatment effective: 85-95%
